Results on 19 compounds are retold here after patent publication US10125134B2 (Mirati Therapeutics, Inc., priority 2016, dated 2018).

The subject of experiment [1] is NCI-H358 cells (express KRas G12C), Phospho-ERK. Kind of experiment: Cellular inhibition of KRas G12C: Phospho-ERK in NCI-H358 cells. It counts as cell-based. The following applies: pERK(Thr202/Tyr204) normalized with GAPDH, NCI-H358 cells, 3 hours, read-out: IC50. In a few lines: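 IC50 derived by 4-parameter fit of GAPDH-normalized pERK(Thr202/Tyr204) signal, as percent of DMSO control. Signal came from in-cell immunodetection with infrared secondaries after 3 h compound exposure of KRas G12C NCI-H358 cells at 0.5% DMSO.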

The target of experiment [2] is KRas G12C (Homo sapiens, UniProt P01116, C118S/C51S/C80L/G12C). Put plainly: KRas G12C Modification Assay (LCMS detection of covalent adduct). It counts as binding. The following applies: normalized percent of control; tested at 5 μM concentration for 3 hours. In a few lines: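 Cys-light KRas G12C mutant protein incubated with compound in K-Ras assay buffer, reactions quenched at set time points with 25 mM acetic acid and analysed by intact-protein LC/MS on a C-3 column. Deconvoluted mass heights expressed as percent of control (POC) relative to compound-free protein.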

Molecules are shown by their SMILES. Read-outs that look alike come from different tables or passages of the source.

Turning to `CN(C)C/C=C/C(=O)N1CCN(c2nc(OC[C@@H]3CCCN3C)nc3c2CCN(c2cccc(Cl)c2C(F)(F)F)C3)C[C@@H]1CC#N` [Example 426, 2-((S)-4-(7-(3-chloro-2-(trifluoromethyl)phenyl)-2-(((S)-1-methylpyrrolidin-2-yl)methoxy)-5,6,7,8-tetrahydropyrido[3,4-d]pyrimidin-4-yl)-1-((E)-4-(dimethylamino)but-2-enoyl)piperazin-2-yl)acetonitrile], the IC50 in experiment [1] (Homo sapiens, NCI-H358, 3 h) lay in the range of 0.1 to 1000 nM. Besides, in experiment [2], the POC result is reported as “C (“C”>50% POC)”.
In the same order, the values of `C=CC(=O)N1CCN(c2nc(OC[C@@H]3CCCN3C)nc3c2CCN(c2cccc(Cl)c2C(F)(F)F)C3)C[C@@H]1CC#N` [Example 427, 2-((S)-1-acryloyl-4-(7-(3-chloro-2-(trifluoromethyl)phenyl)-2-(((S)-1-methylpyrrolidin-2-yl)methoxy)-5,6,7,8-tetrahydropyrido[3,4-d]pyrimidin-4-yl)piperazin-2-yl)acetonitrile] are 0.1 to 1000 nM and “C (“C”>50% POC)”.
For `C=CC(=O)N1CCN(c2nc(OC[C@@H]3CCCN3C)nc3c2CCN(c2cccc4ccccc24)C3)CC1COC` (stereo partly drawn) [Example 428, 1-(2-(methoxymethyl)-4-(2-(((S)-1-methylpyrrolidin-2-yl)methoxy)-7-(naphthalen-1-yl)-5,6,7,8-tetrahydropyrido[3,4-d]pyrimidin-4-yl)piperazin-1-yl)prop-2-en-1-one], the IC50 in experiment [1] was over 1000 nM. Also, in experiment [2], the POC result is “C (“C”>50% POC)”.
Turning to `C=CC(=O)N1CCN(c2nc(OC[C@@H]3CCCN3C)nc3c2CCN(c2cccc4ccncc24)C3)C[C@@H]1CC#N` [Example 429, 2-((S)-1-acryloyl-4-(7-(isoquinolin-8-yl)-2-(((S)-1-methylpyrrolidin-2-yl)methoxy)-5,6,7,8-tetrahydropyrido[3,4-d]pyrimidin-4-yl)piperazin-2-yl)acetonitrile], the half-maximal inhibitory concentration (IC50) in experiment [1] (Homo sapiens, NCI-H358, 3 h) fell in the range of 0.1 to 1000 nM. Moreover, the POC entry in experiment [2] is recorded as “C (“C”>50% POC)”.
For the compound `C=CC(=O)N1CCN(c2nc(OC[C@@H]3CCCN3C)nc3c2CCN(c2nncc4ccccc24)C3)C[C@@H]1CC#N` [Example 430, 2-((S)-1-acryloyl-4-(2-(((S)-1-methylpyrrolidin-2-yl)methoxy)-7-(phthalazin-1-yl)-5,6,7,8-tetrahydropyrido[3,4-d]pyrimidin-4-yl)piperazin-2-yl)acetonitrile], in experiment [1] (Homo sapiens, NCI-H358, 3 h), the IC50 was over 1000 nM. Besides, the POC entry in experiment [2] was “C (“C”>50% POC)”.
The matching figures for `C=CC(=O)N1CCN(c2nc(OC[C@H]3CCCCN3C)nc3c2CCN(c2cccc4ccccc24)C3)C[C@@H]1CC#N` [Example 431, 2-((S)-1-acryloyl-4-(2-(((R)-1-methylpiperidin-2-yl)methoxy)-7-(naphthalen-1-yl)-5,6,7,8-tetrahydropyrido[3,4-d]pyrimidin-4-yl)piperazin-2-yl)acetonitrile]: 0.1 to 1000 nM and “C (“C”>50% POC)”.
In the same order, the values of `C=CC(=O)N1CCN(c2nc(OC[C@@H]3CCCN3C)nc3c2CCN(c2cccc4ccccc24)C3)C[C@@H]1CCOC` [Example 432, 1-((S)-2-(2-methoxyethyl)-4-(2-(((S)-1-methylpyrrolidin-2-yl)methoxy)-7-(naphthalen-1-yl)-5,6,7,8-tetrahydropyrido[3,4-d]pyrimidin-4-yl)piperazin-1-yl)prop-2-en-1-one] are over 1000 nM and “C (“C”>50% POC)”.
In the case of `C=CC(=O)N1CCN(c2nc(OC[C@@H]3CCCN3C)nc3c2CCN(c2cccc4cccc(C(F)(F)F)c24)C3)C[C@@H]1CC#N` [Example 433, 2-((S)-1-acryloyl-4-(2-(((S)-1-methylpyrrolidin-2-yl)methoxy)-7-(8-(trifluoromethyl)naphthalen-1-yl)-5,6,7,8-tetrahydropyrido[3,4-d]pyrimidin-4-yl)piperazin-2-yl)acetonitrile], in experiment [1] (Homo sapiens, NCI-H358, 3 h), the IC50 is 0.1 to 1000 nM. Moreover, the POC entry in experiment [2] was “C (“C”>50% POC)”.
In the same order, the values of `C=CC(=O)N1CCN(c2nc(OC[C@@H]3CCCN3C)nc3c2CCN(c2cccc4ccn(C)c24)C3)C[C@@H]1CC#N` [Example 434, 2-((S)-1-acryloyl-4-(7-(1-methyl-1H-indol-7-yl)-2-(((S)-1-methylpyrrolidin-2-yl)methoxy)-5,6,7,8-tetrahydropyrido[3,4-d]pyrimidin-4-yl)piperazin-2-yl)acetonitrile] are 0.1 to 1000 nM and “C (“C”>50% POC)”.
The matching figures for `C=CC(=O)N1CCN(c2nc(OC[C@@H]3C[C@@H](F)CN3C)nc3c2CCN(c2cccc(C)c2C)C3)C[C@@H]1CC#N` [Example 435, 2-((S)-1-acryloyl-4-(7-(2,3-dimethylphenyl)-2-(((2S,4R)-4-fluoro-1-methylpyrrolidin-2-yl)methoxy)-5,6,7,8-tetrahydropyrido[3,4-d]pyrimidin-4-yl)piperazin-2-yl)acetonitrile]: 0.1 to 1000 nM and “C (“C”>50% POC)”.
Consider `Cc1cccc(N2CCc3c(nc(OC[C@@H]4C[C@@H](F)CN4C)nc3N3CCN(C(=O)/C=C/CN(C)C)[C@@H](CC#N)C3)C2)c1C` [Example 436, 2-((S)-1-((E)-4-(dimethylamino)but-2-enoyl)-4-(7-(2,3-dimethylphenyl)-2-(((2S,4R)-4-fluoro-1-methylpyrrolidin-2-yl)methoxy)-5,6,7,8-tetrahydropyrido[3,4-d]pyrimidin-4-yl)piperazin-2-yl)acetonitrile], for which, in experiment [1] (Homo sapiens), the IC50 is 0.1 to 1000 nM. In addition, the POC result in experiment [2] was “C (“C”>50% POC)”.
For `C=CC(=O)N1CCN(c2nc(OC[C@@H]3CCCN3C)nc3c2CCN(c2cccc4ccccc24)C3)C(CC#N)C1` (stereo partly drawn) [Example 437, 2-(4-acryloyl-1-(2-(((S)-1-methylpyrrolidin-2-yl)methoxy)-7-(naphthalen-1-yl)-5,6,7,8-tetrahydropyrido[3,4-d]pyrimidin-4-yl)piperazin-2-yl)acetonitrile], the half-maximal inhibitory concentration (IC50) in experiment [1] (Homo sapiens, NCI-H358, 3 h) is over 1000 nM. Further, in experiment [2], the POC entry is reported as “C (“C”>50% POC)”.
In the same order, the values of `C=CC(=O)N1CCN(c2nc(OC[C@@H]3[C@H](F)CCN3C)nc3c2CCN(c2cccc4ccccc24)C3)C[C@@H]1CC#N` [Example 438, 2-((S)-1-acryloyl-4-(2-(((2R,3R)-3-fluoro-1-methylpyrrolidin-2-yl)methoxy)-7-(naphthalen-1-yl)-5,6,7,8-tetrahydropyrido[3,4-d]pyrimidin-4-yl)piperazin-2-yl)acetonitrile] are 0.1 to 1000 nM and “C (“C”>50% POC)”.
In the same order, the values of `C=CC(=O)N1CCN(c2nc(OC[C@@H]3CCCN3C)nc3c2CCN(c2cccc4cccn24)C3)C[C@@H]1CC#N` [Example 440, 2-((S)-1-acryloyl-4-(7-(indolizin-5-yl)-2-(((S)-1-methylpyrrolidin-2-yl)methoxy)-5,6,7,8-tetrahydropyrido[3,4-d]pyrimidin-4-yl)piperazin-2-yl)acetonitrile] are 0.1 to 1000 nM and “C (“C”>50% POC)”.
In the case of `C=CC(=O)N1CCN(c2nc(OC[C@@H]3CN(C)CCO3)nc3c2CCN(c2cccc4ccccc24)C3)CC1CC#N` (stereo partly drawn) [Example 442, 2-(1-Acryloyl-4-(2-(((S)-4-methylmorpholin-2-yl)methoxy)-7-(naphthalen-1-yl)-5,6,7,8-tetrahydropyrido[3,4-d]pyrimidin-4-yl)piperazin-2-yl)acetonitrile], in experiment [1], the IC50 was 0.1 to 1000 nM. Further, the POC result in experiment [2] was “C (“C”>50% POC)”.
`C=CC(=O)N1CCN(c2nc(OC[C@@H]3COCCN3C)nc3c2CCN(c2cccc4ccccc24)C3)CC1CC#N` (stereo partly drawn) [Example 443, 2-(1-Acryloyl-4-(2-(((S)-4-methylmorpholin-3-yl)methoxy)-7-(naphthalen-1-yl)-5,6,7,8-tetrahydropyrido[3,4-d]pyrimidin-4-yl)piperazin-2-yl)acetonitrile]: the IC50 in experiment [1] was 0.1 to 1000 nM. Also, in experiment [2], the POC result is recorded as “C (“C”>50% POC)”.
As for `C=CC(=O)N1CCN(c2nc(OC[C@H]3COCCN3C)nc3c2CCN(c2cccc4ccccc24)C3)CC1CC#N` (stereo partly drawn) [Example 444, 2-(1-Acryloyl-4-(2-(((R)-4-methylmorpholin-3-yl)methoxy)-7-(naphthalen-1-yl)-5,6,7,8-tetrahydropyrido[3,4-d]pyrimidin-4-yl)piperazin-2-yl)acetonitrile], the half-maximal inhibitory concentration (IC50) in experiment [1] is over 1000 nM. Further, the POC result in experiment [2] is given as “C (“C”>50% POC)”.
With `C=CC(=O)N1CCN(c2nc(OC[C@@H]3CC(F)(F)CN3C)nc3c2CCN(c2cccc4ccccc24)C3)C[C@@H]1CC#N` [Example 445, 2-((S)-1-Acryloyl-4-(2-(((S)-4,4-difluoro-1-methylpyrrolidin-2-yl)methoxy)-7-(naphthalen-1-yl)-5,6,7,8-tetrahydropyrido[3,4-d]pyrimidin-4-yl)piperazin-2-yl)acetonitrile], the half-inhibitory concentration (IC50) in experiment [1] (Homo sapiens, NCI-H358, 3 h) lay within 0.1 to 1000 nM. In addition, in experiment [2], the POC entry is reported as “C (“C”>50% POC)”.
`C=CC(=O)N1CCN(c2nc(OC[C@H]3CN(C)C4(CC4)CO3)nc3c2CCN(c2cccc4ccccc24)C3)C[C@@H]1CC#N` [Example 446, 2-((S)-1-Acryloyl-4-(2-(((R)-4-methyl-7-oxa-4-azaspiro[2.5]octan-6-yl)methoxy)-7-(naphthalen-1-yl)-5,6,7,8-tetrahydropyrido[3,4-d]pyrimidin-4-yl)piperazin-2-yl)acetonitrile]: in experiment [1] (Homo sapiens, NCI-H358, 3 h), the half-inhibitory concentration (IC50) lay within 0.1 to 1000 nM. Moreover, the POC entry in experiment [2] is given as “C (“C”>50% POC)”.
